# Measurements reported in patent US9533982B2, “Substituted bicyclic heteroaryl carboxamide analogs as mGluR5 negative allosteric modulators” (Vanderbilt University, priority 2014, dated 2017).
# Molecular target: T1, rat mGluR5 (Rattus norvegicus, UniProt P31424)
# T1 construct: expressed in transfected cells
# Test: mGluR5 activity, cell-based Ca2+ fluorescence (FDSS) assay in human embryonic kidney cells transfected with rat mGluR5
# Details: HEK cells transfected with rat mGluR5; antagonism of EC80 glutamate response; single experiment or average of two where no error is given
# Experimental: Human embryonic kidney (HEK) cells transfected with rat or human mGluR5 were plated in clear bottom assay plates for assay in a Functional Drug Screening System (FDSS). The cells were loaded with a Ca^2+-sensitive fluorescent dye (e.g., Fluo-4), and the plates were washed and placed in the FDSS instrument. Test compound was applied to cells 3 seconds after baseline readings were taken. Cells were incubated with the test compounds for 140 seconds and then stimulated with an EC20 concentration of an mGluR5 agonist (e.g., glutamate, 3,5-dihydroxyphenylglycine, or quisqualate); 60-80 seconds later an EC80 concentration of agonist was added and readings taken for an additional 40 seconds. Data were collected at 1 Hz. […] Concentration response curves were generated using a four parameter logistical equation.
# The above described assay was operated in two modes. In the first mode (utilizing a triple add protocol), a range of concentrations of the present compounds were added to cells, followed by two single fixed concentrations of agonist (EC20 followed by EC80). If a compound acted as a potentiator, an EC50 value for potentiation of the EC20 response and a maximum extent of potentiation by the compound at this concentration of agonist was determined by non-linear curve fitting. If a compound acted as an antagonist, an IC50 value for antagonism of the EC80 response and a maximum extent of antagonism by the compound at this concentration of agonist was determined by non-linear curve fitting. In the second mode (utilizing a double add protocol), several fixed concentrations of the present compounds were added to various wells on a plate, followed by a range of concentrations of agonist for each concentration of present compound; the EC50 values for the agonist at each concentration of compound were determined by nonlinear curve fitting. A decrease in the EC50 value of the agonist with increasing concentrations of the present compounds (a leftward shift of the agonist concentration-response curve) is an indication of the degree of mGluR5 positive allosteric modulation at a given concentration of the present compound. An increase in the EC50 value of the agonist with increasing concentrations of the present compounds (a rightward shift of the agonist concentration response curve) is an indication of the degree of mGluR5 antagonism at a given concentration of the present compound. The second mode also indicates whether the present compounds also affect the maximum response to mGluR5 to agonists.
# The mGluR5 activity was determined using the metabotropic glutamate receptor activity assays in human embryonic kidney cells as described herein, wherein the human embryonic kidney cells were transfected with rat mGluR5. The mGluR5 activity data for some compounds are shown as the average of at least three experiments with the standard error in these cases. If no error is indicated for the mGluR5 activity, the values given represent the results from a single experiment or the average of two experiments. The compounds in Table 1 were synthesized with methods identical or analogous to those shown herein. The requisite starting materials were commercially available, described in the literature, or readily synthesized by one skilled in the art of organic synthesis.
# T1 sequence (P31424 21-1171 isoform P31424-2 limits assumed): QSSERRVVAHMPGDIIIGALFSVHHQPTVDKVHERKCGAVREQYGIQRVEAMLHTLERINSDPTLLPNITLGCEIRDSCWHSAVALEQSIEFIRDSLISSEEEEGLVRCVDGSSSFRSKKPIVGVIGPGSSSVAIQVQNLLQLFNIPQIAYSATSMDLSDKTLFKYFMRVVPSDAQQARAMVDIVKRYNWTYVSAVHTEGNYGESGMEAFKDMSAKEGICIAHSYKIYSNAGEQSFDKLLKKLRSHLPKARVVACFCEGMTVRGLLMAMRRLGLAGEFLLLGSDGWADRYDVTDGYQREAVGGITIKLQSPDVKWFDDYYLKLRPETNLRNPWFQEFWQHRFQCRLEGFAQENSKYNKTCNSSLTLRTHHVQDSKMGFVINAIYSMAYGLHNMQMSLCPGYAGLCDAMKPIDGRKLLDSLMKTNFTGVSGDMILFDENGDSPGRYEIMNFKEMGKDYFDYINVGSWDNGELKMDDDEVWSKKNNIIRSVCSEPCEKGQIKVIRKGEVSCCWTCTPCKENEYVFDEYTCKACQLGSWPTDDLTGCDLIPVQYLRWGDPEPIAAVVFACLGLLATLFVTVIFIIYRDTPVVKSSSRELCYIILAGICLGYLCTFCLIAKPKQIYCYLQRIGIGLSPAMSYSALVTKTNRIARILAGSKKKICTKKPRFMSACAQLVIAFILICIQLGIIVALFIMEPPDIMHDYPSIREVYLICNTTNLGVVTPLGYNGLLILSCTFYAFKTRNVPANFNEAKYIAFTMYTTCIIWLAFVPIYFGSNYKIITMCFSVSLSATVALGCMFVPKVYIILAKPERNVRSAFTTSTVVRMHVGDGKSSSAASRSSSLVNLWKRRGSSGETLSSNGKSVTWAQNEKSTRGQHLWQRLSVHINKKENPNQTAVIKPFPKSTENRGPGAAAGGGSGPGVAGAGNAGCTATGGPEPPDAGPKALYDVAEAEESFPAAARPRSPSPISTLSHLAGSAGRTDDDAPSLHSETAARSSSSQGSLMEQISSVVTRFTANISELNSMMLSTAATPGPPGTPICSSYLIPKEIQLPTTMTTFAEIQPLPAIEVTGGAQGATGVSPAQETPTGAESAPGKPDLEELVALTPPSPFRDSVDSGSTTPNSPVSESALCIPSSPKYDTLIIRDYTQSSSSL
row,IC50,Compound
1,> 10000 nM,O=C(Nc1ccc(F)cn1)c1cc(C(F)c2cncnc2)cc2nccnc12 (stereo not drawn)
2,73 nM,Cc1csc(NC(=O)c2cc(C(=O)c3cncnc3)cc3cccnc23)n1
3,163 nM,Cc1cccc(NC(=O)c2cc(C(=O)c3cncnc3)cc3cccnc23)n1
4,552 nM,COC(c1cncnc1)c1cc(C(=O)Nc2nc(C)cs2)c2ncccc2c1 (stereo not drawn)
5,> 10000 nM,Cc1csc(NC(=O)c2cc(C(O)c3cncnc3)cc3cccnc23)n1 (stereo not drawn)
6,540 nM,CC(c1cncnc1)c1cc(C(=O)Nc2ccc(F)cn2)c2ncccc2c1 (stereo not drawn)
7,890 nM,COC(c1cncnc1)c1cc(C(=O)Nc2ccc(F)cn2)c2ncccc2c1 (stereo not drawn)
8,148 nM,O=C(c1cncnc1)c1cc(C(=O)Nc2ccc(Cl)cn2)c2ncccc2c1
9,645 nM,O=C(c1cncnc1)c1cc(C(=O)Nc2cccc(F)n2)c2ncccc2c1
10,> 30000 nM,O=C(c1cncc(F)c1)c1cc(C(=O)Nc2cccc(Cl)n2)c2ncccc2c1
11,696 nM,O=C(c1cncnc1)c1cc(C(=O)Nc2cccc(Cl)n2)c2ncccc2c1
12,176 nM,O=C(c1cncnc1)c1cc(C(=O)Nc2ccc(Cl)cn2)c2nccnc2c1
13,109 nM,O=C(Nc1ccc(F)cn1)c1cc(C(F)(F)c2cncnc2)cc2cccnc12
14,380 nM,Cc1csc(NC(=O)c2cc(C(=O)c3cncnc3)cc3nccnc23)n1

# Further lines, the molecule ahead of its results:
row,Compound,IC50
1,O=C(c1cncnc1)c1cc(C(=O)Nc2ccc(F)cn2)c2nccnc2c1,> 10000 nM
2,O=C(Nc1ccc(F)cn1)c1cc(C(F)c2cncnc2)cc2cccnc12 (stereo not drawn),83 nM
3,Cc1csc(NC(=O)c2cc(C(=O)c3cncc(F)c3)cc3cccnc23)n1,444 nM
4,O=C(c1cncc(F)c1)c1cc(C(=O)Nc2ccc(Cl)cn2)c2ncccc2c1,> 30000 nM
5,Cc1csc(NC(=O)c2cc(C(C)c3cncnc3)cc3cccnc23)n1 (stereo not drawn),258 nM
6,Cc1cccc(NC(=O)c2cc(C(=O)c3cncnc3)cc3nccnc23)n1,3090 nM
7,Cc1csc(NC(=O)c2cc(C(F)c3cncnc3)cc3cccnc23)n1 (stereo not drawn),127 nM
8,Cc1cccc(NC(=O)c2cc(C(=O)c3cncc(F)c3)cc3cccnc23)n1,1620 nM
9,Cc1csc(NC(=O)c2cc(C(O)c3cncc(F)c3)cc3cccnc23)n1 (stereo not drawn),> 30000 nM
10,O=C(c1cncnc1)c1cc(C(=O)Nc2ccc(F)cn2)c2ncccc2c1,106 nM

# Molecular target: T2, cytochrome P450 1A2 (Homo sapiens, UniProt P05177)
# T2 sequence (P05177 1-516): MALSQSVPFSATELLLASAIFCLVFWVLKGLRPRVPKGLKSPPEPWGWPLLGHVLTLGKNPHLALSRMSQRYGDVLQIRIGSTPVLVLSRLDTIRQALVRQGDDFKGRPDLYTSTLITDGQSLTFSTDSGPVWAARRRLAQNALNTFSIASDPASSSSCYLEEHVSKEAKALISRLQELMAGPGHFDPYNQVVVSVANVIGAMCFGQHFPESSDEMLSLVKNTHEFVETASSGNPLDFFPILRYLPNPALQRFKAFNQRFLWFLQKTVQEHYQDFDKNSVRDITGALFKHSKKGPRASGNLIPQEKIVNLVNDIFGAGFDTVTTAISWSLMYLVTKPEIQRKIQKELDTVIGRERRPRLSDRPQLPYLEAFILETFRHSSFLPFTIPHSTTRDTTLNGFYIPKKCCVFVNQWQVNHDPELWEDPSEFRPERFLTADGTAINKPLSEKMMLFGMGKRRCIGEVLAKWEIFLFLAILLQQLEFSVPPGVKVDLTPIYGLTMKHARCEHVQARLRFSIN
# Test: not given
# Details: cited from earlier work
row,Compound,inhibition of cytochrome P450 1A2
1,"Cc1nc(C#Cc2cccnc2)cs1 [MTEP, 3-[(2-methyl-1,3-thiazol-4-yl)ethynyl]pyridine]",potent inhibitor

# System: marble burying activity in mice
# Test: not given
# Details: literature reports; cited from earlier work
row,Compound,effect in the marble burying model
1,"CN1CC(=O)N=C1NC(=O)Nc1cccc(Cl)c1 [fenobam, 1-(3-chlorophenyl)-3-(1-methyl-4-oxo-4,5-dihydro-1H-imidazol-2-yl)urea]",effective
2,"Cc1cccc(C#Cc2ccccc2)n1 [MPEP, 2-methyl-6-(phenylethynyl)pyridine]",effective

# System: not given
# Test: not given
# Details: intravenous administration to rhesus monkeys; cited from earlier work
row,Compound,clearance
1,"Cc1nc(C#Cc2cccnc2)cs1 [MTEP, 3-[(2-methyl-1,3-thiazol-4-yl)ethynyl]pyridine]",efficiently cleared

# System: N-methyl-D-aspartate (NMDA) receptor
# Test: not given
# Details: at higher concentrations; cited from earlier work
row,Compound,inhibition of NMDA receptor activity
1,"Cc1cccc(C#Cc2ccccc2)n1 [MPEP, 2-methyl-6-(phenylethynyl)pyridine]",directly inhibit

# Molecular target: mGluR4 (Homo sapiens, UniProt Q14833)
# Test: not given
# Details: cited from earlier work
# mGluR4, sequence (Q14833 33-912): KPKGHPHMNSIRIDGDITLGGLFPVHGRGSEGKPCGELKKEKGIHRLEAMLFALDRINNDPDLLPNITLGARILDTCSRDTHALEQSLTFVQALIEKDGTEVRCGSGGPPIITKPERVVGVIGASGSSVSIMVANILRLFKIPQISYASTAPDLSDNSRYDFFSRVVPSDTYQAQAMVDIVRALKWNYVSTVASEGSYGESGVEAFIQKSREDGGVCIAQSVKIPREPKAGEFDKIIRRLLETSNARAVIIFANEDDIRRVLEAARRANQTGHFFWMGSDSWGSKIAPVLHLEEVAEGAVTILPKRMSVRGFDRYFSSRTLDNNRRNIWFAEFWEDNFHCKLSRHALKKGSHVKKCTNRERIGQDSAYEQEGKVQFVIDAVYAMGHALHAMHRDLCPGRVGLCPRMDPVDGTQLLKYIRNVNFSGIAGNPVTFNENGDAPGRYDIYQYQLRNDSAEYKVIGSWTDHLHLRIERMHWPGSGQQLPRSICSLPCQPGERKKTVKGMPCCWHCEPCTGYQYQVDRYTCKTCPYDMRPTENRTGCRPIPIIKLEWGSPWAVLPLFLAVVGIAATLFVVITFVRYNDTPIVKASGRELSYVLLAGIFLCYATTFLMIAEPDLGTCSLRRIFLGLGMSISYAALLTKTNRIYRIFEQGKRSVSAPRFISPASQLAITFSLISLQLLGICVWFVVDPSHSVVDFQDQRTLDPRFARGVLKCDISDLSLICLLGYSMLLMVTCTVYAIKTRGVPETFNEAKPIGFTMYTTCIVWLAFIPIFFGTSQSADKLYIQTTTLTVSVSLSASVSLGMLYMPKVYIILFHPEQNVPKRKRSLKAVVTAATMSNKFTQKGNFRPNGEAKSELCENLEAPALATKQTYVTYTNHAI
row,Compound,modulation of mGluR4
1,"Cc1cccc(C#Cc2ccccc2)n1 [MPEP, 2-methyl-6-(phenylethynyl)pyridine]",positive allosteric modulator
